“Also recorded” adds a separate entry of the source.
How the values were obtained:
[1] = target: T1, Agam\Orco+Agam\Or65 (Anopheles gambiae, UniProt Q7QCC7); experiment: Antagonism of OLC12 activation of heteromeric OR in Xenopus oocytes; format: cell-based; conditions: for IC50: read-out: IC 50 for inhibition of Agam\Orco+Agam\Or65 activation
Protocol: (§1) Follicle cells were removed by treatment with collagenase B (Boehringer Mannheim) for 2 hours at room temperature. Capped cRNA encoding each OR subunit was generated using mMessage mMachine kits (Ambion). For heteromeric ORs, 25 ng of cRNA encoding each OR subunit was injected into Stage V-VI Xenopus oocytes. For expression of Orco homomers, 50 ng of cRNA was injected. Oocytes were incubated at 18°C in Barth's saline (in mM: 88 NaCl, 1 KCl, 2.4 NaHCO 3, 0.3 CaNO 3, 0.41 CaCl 2, 0.82 MgSO 4, 15 HEPES, pH 7.6, and 150µg/ml ceftazidime) for 2–5 days prior to electrophysiological recording.
(§2) Odorant and Orco ligand induced currents were recorded under two-electrode voltage clamp, using an automated parallel electrophysiology system (OpusExpress 6000A, Molecular Devices). Oocytes were perfused with ND96 (in mM: 96 NaCl, 2 KCl, 1 CaCl 2, 1 MgCl 2, 5 HEPES, pH 7.5). Orco ligands were prepared as 50 or 100 mM stock solutions in DMSO and then diluted into ND96 on the day of the experiment. Odorants were prepared as 100 mM stock solutions in DMSO and then diluted into ND96. Unless otherwise noted, applications were for 60 sec at a flow rate of 1.0 ml/min, with extensive washing in ND96 at 4.6 ml/min between applications. Micropipettes were filled with 3 M KCl and had resistances of 0.2–2.0 MΩ. The holding potential was -70 mV. Current responses, filtered (4-pole, Bessel, low pass) at 20 Hz (-3 db) and sampled at 100 Hz, were captured and stored using OpusXpress 1.1 software (Molecular Devices).
To screen for agonist activity, oocytes were exposed to 30 sec applications of candidate compounds with 5 min washes between applications ( Figure 2A). For the concentration-response protocol ( Table 1), applications were for 20 sec at a flow rate of 1.65 ml/min. […]
Initial analysis of electrophysiological data was done using Clampfit 9.1 software (Molecular Devices). […] Statistical significance (p<0.05) was assessed using a two-tailed unpaired t test, an F test, or a one-way analysis of variance followed by the Dunnett's post-test, as appropriate.

[2] = target: T1, Agam\Orco+Agam\Or65; experiment: Inhibition of odorant activation of heteromeric OR in Xenopus oocytes; format: cell-based; conditions: for IC50: IC 50 for inhibition of responses to eugenol; for inhibition of odorant activation of the OR: activated by 100nM eugenol, 10µM tryptamine or 100µM tyramine
Protocol: as §1, §2
(§3) To measure inhibition of odorant activation of heteromeric ORs ( Figures 4B, 4C, Figure 5B and Figure 6), oocytes were exposed to a 30 sec application of odorant followed by a 10 min wash. Oocytes were then exposed to a 90 sec application of tryptamine or tyramine, immediately followed by a 30 sec co-application of tryptamine or tyramine and odorant. The current response in the presence of antagonist candidate was compared to the preceding response to odorant alone and expressed as a percentage. […] For this reason, we then re-normalized antagonism data to the value obtained when the assay was run in the absence of antagonist candidate (sham). In the “sham” assay, oocytes were exposed to a 30 sec application of odorant followed by a 10 min wash and then exposed to a 90 sec application of ND96 (no antagonist candidate), immediately followed by a 30 sec application of odorant. The second odorant response was compared to the first response and expressed as a percentage. In Figure 4B, 4C, Figure 5B and Figure 6, the sham value for 100nM eugenol was 57 ± 3% (mean ± SEM, n = 3). In Figure 5B, the sham value for 10nM eugenol was 93 ± 4% (n = 4). In Figure 4B and C, the sham value for 1µM Z11-14:OAc was 82 ± 6% (n = 6) and the sham value for 150µM 2-phenylethanol was 92 ± 2% (n = 3). In Figure 6, the sham value for 3µM L-fenchone was 83 ± 1% (n = 3), the sham value for 40µM acetophenone was 92 ± 1% (n = 3), the sham value for 70µM geranyl acetate was 97 ± 1% (n = 3), the sham value for 10µM 6-methyl-5-hepten-2-one was 94 ± 2% (n = 3) and the sham value for 3µM 2-nonanone was 81 ± 1% (n = 3).
Initial analysis of electrophysiological data was done using Clampfit 9.1 software (Molecular Devices). Curve fitting and statistical analyses were done using Prism 5 (Graphpad). […]

[3] = test system: Agam\Orco+Agam\Or27; experiment: as above; format: cell-based, Anopheles gambiae; conditions: activated by 3µM L-fenchone; 10µM tryptamine or 100µM tyramine
Protocol: as §1, §2, §3

[4] = test system: Agam\Orco+Agam\Or28; experiment: as above; format: cell-based, Anopheles gambiae; conditions: activated by 40µM acetophenone; 10µM tryptamine or 100µM tyramine
Protocol: as §1, §2, §3

[5] = test system: Agam\Orco+Agam\Or31; experiment: as above; format: cell-based, Anopheles gambiae; conditions: activated by 70µM geranyl acetate; 10µM tryptamine or 100µM tyramine
Protocol: as §1, §2, §3

[6] = test system: Agam\Orco+Agam\Or39; experiment: as above; format: cell-based, Anopheles gambiae; conditions: activated by 10µM 6-methyl-5-hepten-2-one; 10µM tryptamine or 100µM tyramine
Protocol: as §1, §2, §3

T1 sequence (Q7QCC7 whole entry): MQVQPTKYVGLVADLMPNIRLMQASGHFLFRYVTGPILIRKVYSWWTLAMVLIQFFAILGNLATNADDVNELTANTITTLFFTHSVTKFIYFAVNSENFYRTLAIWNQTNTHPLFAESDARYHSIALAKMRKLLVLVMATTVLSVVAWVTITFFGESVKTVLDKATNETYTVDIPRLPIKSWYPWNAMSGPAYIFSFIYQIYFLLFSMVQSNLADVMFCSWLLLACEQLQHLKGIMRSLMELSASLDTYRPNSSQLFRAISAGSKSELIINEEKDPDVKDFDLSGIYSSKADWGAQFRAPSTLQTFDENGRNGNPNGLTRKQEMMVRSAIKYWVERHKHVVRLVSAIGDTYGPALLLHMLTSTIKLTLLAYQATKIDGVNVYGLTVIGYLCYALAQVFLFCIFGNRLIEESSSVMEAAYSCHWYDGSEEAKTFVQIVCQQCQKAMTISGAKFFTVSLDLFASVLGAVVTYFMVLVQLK

| Compound | mechanism of inhibition of OLC12 activation ([1]; Agam\Orco+Agam\Or65, 20µM vs 100µM OLC12) | IC50 ([1]; activated by 20µM OLC12) | IC50 ([1]; activated by 100µM OLC12) | mechanism of inhibition of odorant activation ([2]; Agam\Orco+Agam\Or65, 10nM vs 100nM eugenol) | IC50 ([2]; Agam\Orco+Agam\Or65, 10nM eugenol) | IC50 ([2]; Agam\Orco+Agam\Or65, 100nM eugenol) | inhibition of odorant activation of the OR [2] | inhibition of odorant activation of the OR [3] | inhibition of odorant activation of the OR [4] | inhibition of odorant activation of the OR [5] | inhibition of odorant activation of the OR [6] |
| --- | --- | --- | --- | --- | --- | --- | --- | --- | --- | --- | --- |
| NCCc1c[nH]c2ccccc12 [tryptamine] | competitively inhibits OLC12 activation | 2.9 ± 0.5 µM | 8.5 ± 1.1 µM | non-competitively inhibits odorant activation | 3.1 ± 0.4 µM | 3.2 ± 0.3 µM | substantial inhibition of each receptor; also recorded: able to inhibit odorant activation of the receptor | able to inhibit odorant activation of the receptor | able to inhibit odorant activation of the receptor | able to inhibit odorant activation of the receptor | able to inhibit odorant activation of the receptor |
| NCCc1ccc(O)cc1 [tyramine] |  |  |  |  |  |  | able to reduce odorant activation of these ORs, but was less effective than tryptamine; also recorded: able to inhibit odorant activation of each of these receptors, but was less effective than tryptamine | able to inhibit odorant activation of each of these receptors, but was less effective than tryptamine | able to inhibit odorant activation of each of these receptors, but was less effective than tryptamine | able to inhibit odorant activation of each of these receptors, but was less effective than tryptamine | able to inhibit odorant activation of each of these receptors, but was less effective than tryptamine |

Source: publication PMC4097363, “Trace amines inhibit insect odorant receptor function through antagonism of the co-receptor subunit” (F1000Research, 2014)
